Where two headings read alike, the source gives them in different places.
Columns and labels:
[1] = Solubility in DMSO diluted with culture medium (GC, standard solubility curve); format: physicochemical
Experimental: The residue was dissolved in chloroform analyzed on GC.
Ethyl ether was then evaporated.

[2] = system: carcinoma cell line CO-115 of the large intestine; details: carcinoma cell line CO-115 (Ukkonen et al.); cited from earlier work
AZT-resistant strain = test: Anti-HIV activity against AZT-resistant patient isolates in MT-2 cells; format: cell-based
Excerpt: These isolates were used to infect MT-2 cells in vitro.

[3] = Solubilization in PBS containing human γ-globulin, human albumin and ethanol; format: physicochemical; details: 1 × 10^−3 mol/L
[4] = In vivo tolerability in mice with prostate cancer cell xenografts; details: final concentration of 22% ethanol and 2×10−3 mol per liter of betulonic acid
cells = details: cited from earlier work
[5] = Solubility of betulonic acid in human serum; format: physicochemical; details: 1.34 mg in 31 μL neat ethanol diluted with 700 μL human serum; 4.2% final ethanol
HIV-1 IIIB isolate = test: HIV-1 inhibitory effect, p24 antigen capture ELISA, acutely infected 174XCEM cells; format: cell-based; details: 1 μg/ml (in DMSO); 4 days culture
174XCEM = test: Effect on cell viability, trypan blue dye exclusion; details: trypan blue dye exclusion at four days and seven days
Experimental: Human T-B hybridoma cell line 174XCEM was exposed to a low multiplicity of infection (“MOI”) (MOI=1.0) of stock HIV-1 IIIB isolate for 2 hours at 37° C., washed ×3 with phosphate buffered saline (“PBS”), then plated at 250,000 cells/well in the presence of various agents, shown in Table 10. Dimethyl sulfoxide (“DMSO”) buffer was used as a […] control. A commercially available synthetic peptide, thrombospondin peptide (“TSP”), known as having HIV-1 inhibitory activity, was used as an “inhibitory activity” control. Two HIV isolates were used, a patient isolate (“child HIV”), and the standard CXCR4 co-receptor utilizing isolate IIIB.
The cell samples were assessed by trypan blue dye exclusion at four days and seven days.

another HIV-1 isolate = test: Effect on 174XCEM cells chronically infected with another HIV-1 isolate; format: cell-based; details: chronically infected 174XCEM cells; betulin diacetate single dose 1 μg/ml
Experimental: Agents were also evaluated for an effect on 174XCEM cells chronically infected with another HIV-1 isolate.

[6] = 1.0 mg in culture medium containing 20% DMSO

SMILES: C=C(C)C1CCC2(C(=O)NCCCCC(NC(=O)C(CCCCNC(=O)C34CCC(C(=C)C)C3[C@@H]3CC[C@H]5[C@]6(C)CCC(=O)C(C)(C)[C@H]6CC[C@]5(C)[C@@]3(C)CC4)NC(=O)OC(C)(C)C)C(=O)O)CC[C@]3(C)[C@H](CC[C@@H]4[C@@]5(C)CCC(=O)C(C)(C)[C@@H]5CC[C@]43C)C12 (stereo partly shown) [Boc-Dimer]
- Concentration of drug (mg/mL) [1, 6]: 0.6 mg/mL
- Concentration of drug (mol/L) [1, 6]: 0.0005 mol/L
- Con. in culture medium containing 20% DMSO ([1]; calculated (nominal) concentration): 0.0005 mol/L

SMILES: C=C(C)[C@@H]1CC[C@]2(C(=O)O)CC[C@]3(C)[C@H](CC[C@@H]4[C@@]5(C)CC[C@H](O)C(C)(C)[C@@H]5CC[C@]43C)[C@@H]12 [betulinic acid, Betulinic Acid]
- cytotoxic activity, LD 50 [2]: 0.375 mg/mL

SMILES: Cc1cn([C@H]2C[C@H](N=[N+]=[N-])[C@@H](CO)O2)c(=O)[nH]c1=O [AZT, 3′-azido-3′-deoxythymidine, reference compound]
- inhibition in the HIV infection, AZT-resistant strain (AZT-resistant strain; day 5 (FIG. 14)): ineffective

SMILES: C=C(C)C1CCC2(C(=O)O)CC[C@]3(C)[C@H](CC[C@@H]4[C@@]5(C)CCC(=O)C(C)(C)[C@@H]5CC[C@]43C)C12 (stereo partly shown) [betulonic acid, Betulonic Acid]
- Con. in culture medium containing 20% DMSO [1]: 0.001 mol/L
- amount of betulonic acid dissolved ([1]; 3 mg in culture medium containing 10% FBS with 1% DMSO, supernatant after centrifugation): 0.4 mg
- Observation ([3]; 1.0 mg, ethanol 220 μL, γ-globulin 1.48 mL, albumin 0.49 mL): Cloudy
- Observation ([3]; 1.3 mg, ethanol 280 μL, γ-globulin (27 mg/mL in PBS) 2.50 mL, albumin (42 mg/mL in PBS) 0 mL): Suspension
- inhibition in the HIV infection, AZT-resistant strain (AZT-resistant strain; day 5 (FIG. 14)): 44%
- inhibition in the HIV infection, AZT-resistant strain (AZT-resistant strain; day 8 (FIG. 15)): increased further
- tolerability [4]: well tolerated
- cytotoxicity, interfering with the proliferation of cells (cells): cytotoxic
- Observation [5]: Clear Solution

SMILES: C=C(C)[C@@H]1CC[C@]2(COC(C)=O)CC[C@]3(C)[C@H](CC[C@@H]4[C@@]5(C)CC[C@H](O)C(C)(C)[C@@H]5CC[C@]43C)[C@@H]12 [28-acetoxy betulin, 28-Acetoxy Betulin]
- anti-HIV-1 activity (HIV-1 gag (p24) antigen, OD units, FIG. 6) (HIV-1 IIIB isolate): anti-HIV-1 activity superior to that previously disclosed in the art for other betulinol derivatives
- effect on total cell number or cell viability (174XCEM): no effect on total cell number or cell viability

SMILES: C=C(C)C1CCC2(CO)CC[C@]3(C)[C@H](CC[C@@H]4[C@@]5(C)CCC(O)C(C)(C)[C@@H]5CC[C@]43C)C12 (stereo partly drawn) [betulinol, lup-20(29)-ene-3β, 28-diol]
- inhibition (release of virus from chronically infected cells) (another HIV-1 isolate): minimal effect

SMILES: C=C(C)C1CCC2(C(=O)NCCCCC(NC(=O)OC(C)(C)C)C(=O)O)CC[C@]3(C)[C@H](CC[C@@H]4[C@@]5(C)CCC(=O)C(C)(C)[C@@H]5CC[C@]43C)C12 (stereo partly shown) [Boc-Monomer]
- Con. in culture medium containing 20% DMSO [1]: 0.001 mol/L
- tolerability [4]: well tolerated

SMILES: C=C(C)[C@@H]1CC[C@]2(C=O)CC[C@]3(C)[C@H](CC[C@@H]4[C@@]5(C)CCC(=O)C(C)(C)[C@@H]5CC[C@]43C)[C@@H]12 [betulone aldehyde, Betulon Aldehyde]
- inhibition (release of virus from chronically infected cells) (another HIV-1 isolate): minimal effect

SMILES: C=C(C)C1CCC2(COC)CCC3(C)C(CCC4C5(C)CCC(OC)C(C)(C)C5CCC43C)C12 (stereo not shown) [betulin dimethyl ether, Betulin Dimethyl ether]
- anti-HIV-1 activity (HIV-1 gag (p24) antigen, OD units, FIG. 6) (HIV-1 IIIB isolate): anti-HIV-1 activity superior to that previously disclosed in the art for other betulinol derivatives
- effect on total cell number or cell viability (174XCEM): no effect on total cell number or cell viability

SMILES: C=C(C)[C@@H]1CC[C@]2(CO)CC[C@]3(C)[C@H](CC[C@@H]4[C@@]5(C)CC[C@H](OC(C)=O)C(C)(C)[C@@H]5CC[C@]43C)[C@@H]12 [3-acetoxy betulin, 3-Acetoxy Betulin]
- anti-HIV-1 activity (HIV-1 gag (p24) antigen, OD units, FIG. 6) (HIV-1 IIIB isolate): anti-HIV-1 activity superior to that previously disclosed in the art for other betulinol derivatives
- effect on total cell number or cell viability (174XCEM): no effect on total cell number or cell viability

SMILES: C=C(C)[C@@H]1CC[C@]2(COC(C)=O)CC[C@]3(C)[C@H](CC[C@@H]4[C@@]5(C)CC[C@H](OC(C)=O)C(C)(C)[C@@H]5CC[C@]43C)[C@@H]12 [betulin diacetate, Betulin Diacetate]
- inhibition (release of virus from chronically infected cells) (another HIV-1 isolate): 20%
